Series [1] is described as follows: Oral bioavailability and isomer interconversion of R and S isomers at C* in rats. Set-up: species or system male Sprague Dawley rats. To be noted: rat; for bioavailability / half-life: 30 mg/kg. As for the experimental part: Three groups of male Sprague Dawley rats (n=6-7/group) were orally administered a compound of formula I wherein the mixture comprised about 92% R isomer at position C* and about 8% S isomer at position C*; a mixture that was about 7% R isomer at position C* and about 93% S isomer at position C*; or a compound of formula I wherein the mixture was about 54% R isomer at position C* and about 46% S isomer at position C*; at a nominal dose of 30 mg/kg. Serial blood samples were collected up to 24 hours (hr) post dose. Derived plasma samples (100 μL) were acidified by the addition of 5 μL of formic acid to prevent in vitro interconversion. The determination of concentrations of both the R isomer and the S isomer, at position C*, in plasma and in dose solutions was conducted using a chiral liquid chromatography/mass spectrometry (LC/MS/MS, e.g., LC/tandem mass spectroscopy) method. The formulations of the solid dispersions containing either 10% of the R:S mixture, the R isomer, or the S isomer were prepared according to Table 4. […] The sodium lauryl sulfate and PVP were added to the flask containing the drug solution and were then mixed until dissolved. The mixtures were dried under Roto-vap for about 15 min. After a dry powder was obtained, the solid was then scraped from the flask and transferred to a glass container. The solid was dried for 24 hr at 55° C. in a vacuum oven with nitrogen bleed. The dry solid was then milled by mortar and pestle and was stored in a tightly capped vial. […] Male Sprague Dawley rats (Charles River Laboratories, Kingston, R.I.; n=6-7/group) were used in the study. The day before dosing, the rats were cannulated in the carotid artery for collecting blood samples. […] The experiments were performed with a parallel study design as 6 separate single dose studies as described in Table 5. […] The blood samples were collected in tubes containing potassium EDTA and were centrifuged to plasma within 15 min of collection. A diluted solution of formic acid was prepared by diluting 1 mL of formic acid with 9 mL of water. A total of 5 micro liters (μL) of this diluted formic acid was placed into each plasma tube. An aliquot of plasma (100 μL per tube) was placed into appropriately labeled tubes containing the formic acid, and the acidified plasma was stored frozen at −70° C. until analysis. The acidification step was implemented to prevent in vitro interconversion. Referring to Table 6, several bioavailability parameters for compounds undergoing reversible metabolism could be estimated by the following descriptions.

The nature of series [2]: in vivo. Particulars: male, Sprague-Dawley, rat, iv.
Experimental: The intravenous pharmacokinetics of compounds of formula I were evaluated in rats and dogs. A group of 3 male Sprague-Dawley rats weighing between 250 to 300 g was administered an intravenous bolus dose of 0.95 mg/kg of an S-diastereomer of formula I, in a vehicle consisting of 15% ethanol, 10% dimethyl isosorbide, 35% PEG400 and 40% D5W (5% dextrose in water). Serial blood samples were collected in heparinized tubes at 0 (pre-dose), 0.083, 0.167, 0.25, 0.5, 1, 1.5, 2, 3, 4, 6, and 8 h, post-dose administration. […] For oral studies in rats and dogs, an S-diastereomer compound of formula I was formulated in polyvinylpyrrolidone (PVP) K30 plus 2% sodium lauryl sulfate and then dosed as an oral gavage. A group of 3 male Sprague-Dawley rats (250 to 300 g, Harlan, Md.) was dosed orally with 40 mg/kg of the compound, and a group of 3 male Beagle dogs (10.9-12.0 kg) was administered an oral dose of 13.2 mg/kg of the compound. In both oral studies, blood samples were taken at pre-dose, 0.25, 0.5, 1, 1.5, 2, 3, 4, 6, 8, 12, and 24 h following dose administration. […] Samples obtained from the rat intravenous study were subjected to a chiral liquid chromatography/mass spectrometry (LC/MS/MS) analysis, while samples of all other studies were analyzed using a non-chiral LC/MS/MS method. […]

This is an account of results in patent publication US20130177531A1, “Inhibitors of Serine Proteases” (Vertex Pharmaceuticals Incorporated, priority 2005, published 2013).

For the molecule `CCC[C@@H](NC(=O)[C@@H]1[C@H]2CCC[C@H]2CN1C(=O)[C@@H](NC(=O)[C@@H](NC(=O)c1cnccn1)C1CCCCC1)C(C)(C)C)C(=O)C(=O)NC1CC1` [R isomer at C*, (1S,3aR,6aS)-2-[(2S)-2-[[(2S)-2-cyclohexyl-1-oxo-2-[(pyrazinylcarbonyl)amino]ethyl]amino]-3,3-dimethyl-1-oxobutyl]-N-[(1R)-1-[2-(cyclopropylamino)-1,2-dioxoethyl]butyl]octahydro-cyclopenta[c]pyrrole-1-carboxamide], in series [1] (male, Sprague Dawley, in vivo), the “FR+SR, estimated total bioavailability based on combined exposure to the R and S isomers following a dose of the R isomer” value is “about 98%”; the “mean (±SD) Tmax for the R isomer” value is 2.11 (−1.24) hr; the bioavailability amounted to 80.6%; the half-life is 2.18 h. Further, the “in vivo isomer conversion at position C* (R to S versus S to R)” value in series [1] is reported as “more prominent”. This molecule had a half-life in series [2] of 0.75 h.
Turning to `CCC[C@H](NC(=O)[C@@H]1[C@H]2CCC[C@H]2CN1C(=O)[C@@H](NC(=O)[C@@H](NC(=O)c1cnccn1)C1CCCCC1)C(C)(C)C)C(=O)C(=O)NC1CC1` [S isomer at C*, (1S,3aR,6aS)-2-[(2S)-2-[[(2S)-2-cyclohexyl-1-oxo-2-[(pyrazinylcarbonyl)amino]ethyl]amino]-3,3-dimethyl-1-oxobutyl]-N-[(1S)-1-[2-(cyclopropylamino)-1,2-dioxoethyl]butyl]octahydro-cyclopenta[c]pyrrole-1-carboxamide], in series [1] (male, Sprague Dawley, in vivo), the DN AUCINF of the S isomer turned out to be 140 ng·h/mL, the “mean (±SD) Tmax for the S isomer” value is given as 2.52 (±2.19) hr, the bioavailability came to 42.9% and the half-life was 3.6 h. The half-life in series [2] was 1.73 h.

As a reminder, the bioavailability is dose-corrected exposure relative to a reference, in per cent. Lower therefore signals little systemic uptake. What is called half-life is how long it takes for the measured level to halve. Higher therefore signals slow loss.
